Reference: patent US6906059B2, “Pharmaceutical composition with protective action against oxidative/toxic substances, especially cardiotoxic substances” (Solvay Pharmaceuticals, priority 1999, dated 2005)

Experiments:
[1] = test system: rats with adriamycin-induced cardiomyopathy; experiment: Inhibition of the pro-oxidative action of adriamycin in rats (plasma α-tocopherol, lipid peroxides, ferroxidase activity); format: in vivo, male Wistar rats; conditions: for Lipid peroxides (measured as malonic dialdehyde thiobarbituric acid adducts) in plasma / α-Tocopherol (Vitamin E) in plasma / Ferroxidase activity in plasma: X ± SEM
Experimental: The left-ventricular myocardial hydroxyproline concentration, which is a measurement of cardiac fibrous tissue growth, was less in the animals treated with test substance (group 3) than in the control animals treated with adriamycin (group 2). […] If the test substance was also administered in addition to adriamycin (group 3), the adriamycin-induced increase in the hydroxyproline content could be reduced by about 13% compared with animals treated with placebo (group 2). […] The animals were divided into 4 groups:
1. untreated animals (=control animals, n=19);
2. animals treated with adriamycin (+placebo instead of test substance, n=14);
3. animals treated with test substance (n=11);
4. animals treated with adriamycin and test substance (n=14).
The test substance used was (3S,2R′)-3-{1-[2′-(ethoxycarbonyl)-4′-phenyl-butyl]-cyclopentane-1-carbonylamino}-2,3,4,5-tetrahydro-2-oxo-1H-1-benzazepin-1-acetic acid, being representative of the substances of Formula I usable according to the invention.
The animals of groups 2 and 4 were administered 15 mg/kg adriamycin intraperitoneally over a period of two weeks. The animals of group 4 were administered 30 mg/kg of the test substance daily for two weeks with their food, starting with the first day of adriamycin treatment. The animals of group 3 were likewise administered 30 mg/kg of the test substance daily for two weeks with their food (but without adriamycin).
Once the two-weeks' treatment had ended, the animals were anaesthetised with pentobarbital (50 mg/kg i.p.) and venous blood samples were taken, from which plasma was obtained. The concentration of lipid-peroxides and the ferroxidase activity in the plasma was measured using the methods of Wong, S. H. Y. et al., Clin. Chem. 33, 214-220, 1987 or Johnson, D. A. et al., Clin. Chem. 13, 142-150, 1967. Furthermore, the α-tocopherol concentration in the plasma was measured using the method of Catignani, G. L. and Bieri, J. G., Clin. Chem. 29, 708-712, 1983.

[2] = test system: rabbits with adriamycin-induced cardiomyopathy; experiment: Reduction of adriamycin-induced cardiac remodelling processes in the rabbit heart (heart/body weight ratio, hydroxyproline content); format: in vivo; conditions: for Ratio of heart weights to body weight: X ± SEM, n = 8
Experimental: • A) The tests were carried out on rabbits of both sexes having an initial body weight of 2.1±0.2 kg. The animals were divided into 3 groups:
1. untreated animals (=control animals, n=20);
2. animals treated with adriamycin (+placebo instead of test substance, n=8);
3. animals treated with adriamycin and test substance (n=8). • The test substance used was (3S,2R′)-3-{1-[2′-(ethoxycarbonyl)-4′-phenyl-butyl]-cyclopentane-1-carbonylamino}-2,3,4,5-tetrahydro-2-oxo-1H-1-benzazepin-1-acetic acid, which is representative of the substances of Formula I usable according to the invention.
Groups 2 and 3 were administered 1 mg/kg adriamycin i.v. twice a week for 4 weeks. Group 3 of rabbits having adriamycin-induced cardiomyopathy was administered a daily oral dose of the test substance (30 mg/kg body weight) for 4 weeks, starting on the first day of adriamycin treatment, with their food. Once the 4 weeks had ended, the hearts were isolated and weighed. Then they were fixed with formalin for later biochemical investigations (hydroxyproline content of the heart tissue, measured with the HPLC amino acid analysis after Blankenship, D. T. et al., Aunal. Biochem. 178, 227-232, 1989 and Schuster, R., J. Chromatogr. 431, 271 -284, 1989). Both the increase in heart weight in relation to body weight and the hydroxyproline content in the heart tissue compared with normal values are indicators of remodelling processes taking place in the heart.

[3] = Group 2: adriamycin 15 mg/kg i.p. over two weeks + placebo, n = 14
[4] = group 2 (adriamycin) v. group 1 (control)
[5] = group 2 (adriamycin) v. group 1 (untreated)
[6] = Group 3: test substance 30 mg/kg daily with food for two weeks, no adriamycin, n = 11
[7] = Group 4: adriamycin 15 mg/kg i.p. + test substance 30 mg/kg daily, two weeks, n = 14
[8] = adriamycin + test substance v. adriamycin + placebo
[9] = group 4 v. group 2 (adriamycin + placebo)
[10] = test substance alone v. untreated
[11] = adriamycin + test substance 30 mg/kg daily oral v. adriamycin + placebo, 4 weeks

COc1cccc2c1C(=O)c1c(O)c3c(c(O)c1C2=O)C[C@@](O)(C(=O)CO)C[C@@H]3O[C@H]1C[C@H](N)[C@H](O)[C@H](C)O1 [adriamycin, reference compound]
Lipid peroxides (measured as malonic dialdehyde thiobarbituric acid adducts) in plasma [1, 3]: 4.476 ± 0.404 µmol/L | α-Tocopherol (Vitamin E) in plasma [1, 3]: 338.2 ± 28.0 µg/dL | Increase of concentration of lipid peroxides in the rat plasma [1, 4]: about 131% | Increase of total activity of the ferroxidase in the rat plasma [1, 4]: about 22% | Ratio of heart weights to body weight ([2]; Group 2: adriamycin 1 mg/kg i.v. twice a week for 4 weeks + placebo): 3.39 ± 0.13 g/kg | Increase of heart/body weight ratio compared with untreated control group [2, 5]: about 69% | Increase of myocardial hydroxyproline content compared with untreated control group [2, 5]: about 60%

CCOC(=O)[C@H](CCc1ccccc1)CC1(C(=O)N[C@H]2CCc3ccccc3N(CC(=O)O)C2=O)CCCC1 [test substance, (3S,2R′)-3-{1-[2′-(ethoxycarbonyl)-4′-phenyl-butyl]-cyclopentane-1-carbonylamino}-2,3,4,5-tetrahydro-2-oxo-1H-1-benzazepin-1-acetic acid]
Ferroxidase activity in plasma [1, 6]: 0.2545 ± 0.0104 IU/l | Lipid peroxides (measured as malonic dialdehyde thiobarbituric acid adducts) in plasma [1, 6]: 2.319 ± 0.086 µmol/L | α-Tocopherol (Vitamin E) in plasma [1, 6]: 657.8 ± 21.0 µg/dL | Ferroxidase activity in plasma [1, 7]: 0.2534 ± 0.0128^+ IU/l | Lipid peroxides (measured as malonic dialdehyde thiobarbituric acid adducts) in plasma [1, 7]: 3.030 ± 0.235^+++ μmol/l | α-Tocopherol (Vitamin E) in plasma [1, 7]: 407.9 ± 33.0 µg/dL | % Effect of the test substance on plasma ferroxidase activity, Group 4 v. 2 [1, 8]: −23.0% | % Effect of the test substance on plasma lipid peroxides, Group 4 v. 2 [1, 8]: −32.3% | % Effect of the test substance on plasma α-tocopherol, Group 4 v. 2 [1, 8]: +20.6% | Increase of α-tocopherol content in the plasma ([1]; group 3 (test substance) v. group 1 (control)): about 95% | Increase of α-tocopherol content in the plasma ([1]; group 4 (adriamycin + test substance) v. group 2 (adriamycin + placebo)): about 21% | Decrease of ferroxidase activity [1, 9]: 23% | Reduction of the adriamycin-induced increase in the concentration of lipid peroxides in the plasma [1, 9]: about 32% | % Effect of the test substance on plasma ferroxidase activity, Group 3 v. 1 [1, 10]: −5.7% | % Effect of the test substance on plasma lipid peroxides, Group 3 v. 1 [1, 10]: +19.6% | % Effect of the test substance on plasma α-tocopherol, Group 3 v. 1 [1, 10]: +95.2% | Ratio of heart weights to body weight ([2]; Group 3: adriamycin 1 mg/kg i.v. twice a week + test substance 30 mg/kg daily oral, 4 weeks): 2.79 ± 0.08 g/kg | % Effect of the test substance (group 3 v. 2) on hydroxyproline content of the heart [2, 11]: −13.3% | % Effect of the test substance (group 3 v. 2) on ratio of heart weights to body weight [2, 11]: −17.7% | Reduction of the adriamycin-induced increase in the heart/body weight ratio ([2]; group 3 v. group 2 (placebo)): about 18% | Reduction of the adriamycin-induced increase in the hydroxyproline content ([2]; group 3 v. group 2 (placebo)): about 13%
